According to paper PMC9072872, “Structure-based design of nucleoside-derived analogues as sulfotransferase inhibitors” (RSC Advances, 2019):

Columns and labels:
[1] = biological target: T1, HS2ST (Gallus gallus, UniProt Q76KB1); test: Microfluidic mobility shift sulfation assay, HS2ST (fluorescent hexasaccharide substrate); format: biochemical, chicken; settings: for IC50: read-out: IC50 against HS2ST
T1 construct: made in house; host or cells: E. coli Rosetta-gami (DE3)
T1 sequence (Q76KB1 1-356): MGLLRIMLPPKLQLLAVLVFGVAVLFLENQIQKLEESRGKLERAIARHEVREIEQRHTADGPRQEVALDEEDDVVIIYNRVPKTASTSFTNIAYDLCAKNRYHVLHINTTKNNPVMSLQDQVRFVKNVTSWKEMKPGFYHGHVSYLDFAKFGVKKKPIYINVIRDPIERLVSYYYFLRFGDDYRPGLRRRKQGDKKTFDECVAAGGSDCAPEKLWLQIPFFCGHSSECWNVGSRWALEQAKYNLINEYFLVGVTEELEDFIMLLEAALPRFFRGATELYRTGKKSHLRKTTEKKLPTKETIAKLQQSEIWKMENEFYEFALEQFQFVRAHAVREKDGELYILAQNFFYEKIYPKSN
Procedure: Compounds were initially screened at 400 μM in the presence 20 nM HS2ST and 0.1 μM TPST1 respectively.
Fig. 4 Summary of enzymatic inhibition assays against HS2ST and TPST1. (A) Enzymatic analysis of HS2ST1 inhibition by a panel of PAP- and PAPS-mimetic compounds. […] HS2ST sulfotransferase activity was assayed using a fluorescent hexasaccharide substrate (2 μM) and normalised to DMSO (4% v/v) or buffer control. Data shown is mean and SD of 4 repeat experiments. (B) Full dose–response curves for selected compounds. […] HS2ST activity calculated as previously described. Data from two independent experiments are combined. (C) Enzymatic analysis of TPST1 inhibition by a panel of PAP- and PAPS-mimetic compounds. […] TPST1 activity was measured using fluorescently-labelled CC4-tide (2 μM) and normalised to DMSO (4% v/v) or buffer control. (D) Full dose–response curves for selected compounds. […] TPST1 activity was measured using CC4-tide and normalised to DMSO or buffer controls as previously described. The data shown is from duplicate experiments.
N-sulfated, fluorescein-tagged HS2ST1 hexasaccharide glycan substrate (GlcNS-GlcA- GlcNS-IdoA-GlcNS-GlcA-fluorescein, where S=sulfation) containing L-IdoA at the third residue from the reducing end (to which a linker and the fluorophore were conjugated) was purchased from GLY CAN therapeutics. TPST1 peptide substrate (CC4-tide, 5-FAM-EDFED YEFDG-CONH2) was synthesised using solid-phase Fmoc chemistry (Pepceuticals, Leicester, UK). All standard laboratory biochemicals, were purchased from Sigma, and were of the highest analytical quality.
5'-phosphosulfate, lithium salt hydrate, PAP (adenosine 3',5'-diphosphate, disodium salt), CoA (coenzymeA, sodium salt), ATP (adenosine 5’-triphosphate, disodium salt hydrate) were all purchased from Sigma and stored at -80 °C to minimise degradation.
Recombinant Protein Production and SDS-PAGE […]
Microfluidics-Based Sulfation Assay
Non-radioactive microfluidic mobility shift peptide and carbohydrate sulfation assays were performed in solution with a 12-sipper chip coated with SR8 reagent and a Perkin Elmer EZ Reader II system 8 using an EDTA-based separation buffer and real-time kinetic evaluation of substrate sulfation. Pressure and voltage settings were adjusted manually to afford optimal separation of the sulfated product and non-sulfated substrate, with a sample (sip) volume of 20 nL, and total assay tim es appropriate for the experiment. The fluorophore tagged TPST1 peptide substrate and HS2ST1 glycan substrate where detected by the EZ Reader via LED-induced fluorescence.
Individual sulfation assays were assembled in a 384 well plate in a volume of 80 µL in the presence of […]
and 5 mM MgCl2. The degree of substrate sulfation was directly calculated using EZ Reader software by measuring the sulfo-product:non-sulfated substrate ratio at each time-point. The act ivity of the sulfotransferase enzymes in the presence of biochemicals and small molecule inhibitors was quantified in ‘kinetic mode’ by monitoring the amount of sulfated product generated over the assay time, relative to control assay with no additional inhibitor molecule (DMSO or buffer control). Data was normalized with respect to these control assays, with sulfate incorporation into the substr ate limited to ~ 20% to prevent depletion of PAPS and to ensure assay linearity. K m and IC50 values were determined by non-linear regression analysis with GraphPad Prism software. […]

[2] = biological target: PKA (Homo sapiens, UniProt P17612); test: PKA kinase counter-screen; format: biochemical; settings: compound 400 μM, PKA 1 nM, ATP 5 μM, 30 min, 20 °C
Excerpt: Fig. 5 Immunological evaluation of TPST1 inhibition towards substrate and a Ser/Thr protein kinase counter-screen. (A) Immunoblots evaluating TPST1 sulfotransferase activity in the presence of a panel of PAP- and PAPS-mimetic compounds. […] After termination of the reaction using SDS-PAGE sample buffer, tyrosine sulfation was visualised by immunoblotting using a monoclonal sulfotyrosine antibody (top panel), with equal GST-CC4-tide and TPST1 loading confirmed using an antibody to detect 6xHis tagged proteins (bottom panel). (B) Enzymatic inhibition of PKA catalytic activity by a panel of PAP- and PAPS-mimetic compounds. PKA kinase (1 nM) was incubated with ATP (5 μM) in the presence of the appropriate nucleoside analogue (400 μM) for 30 min at 20 °C. PKA activity was calculated in real-time using fluorescently-labelled substrate peptide (2 μM) and normalised to DMSO (4% v/v) or buffer control.[77] Data in B is mean and SD of 3 individual experiments. Staurosporine is included at 40 μM as a generic inhibitor of kinase activity.
Finally, a simple counter-screen was set up employing PKA. This was carried out in order to assess relative specificity for ST inhibition, and using the generic kinase inhibitor staurosporine A as a positive control and PAP and CoA as negative controls, neither of which bind nor inhibit PKA. Compounds were screened at 400 μM in the presence 1 nM PKA.

Row | SMILES | inhibitory activity against HS2ST ([1]; compound 400 μM, HS2ST 20 nM, PAPS 5 μM) | IC50 [1] [µM] | inhibitory activity towards PKA [2]
1 | Nc1ncnc2c1ncn2[C@H]1C[C@H](O)[C@@H](Cn2cc(P(=O)(O)O)nn2)O1 [Compound 11] | inactive |  | 
2 | Nc1ncnc2c1ncn2[C@H]1C[C@H](O)[C@@H](Cn2cc(P(=O)(O)OCc3ccccc3)nn2)O1 [Compound 13] |  | 100 to 300 | 
3 | Nc1ncnc2c1ncn2[C@H]1C[C@H](OP(=O)(O)O)[C@@H](COP(=O)(O)O)O1 [2′-deoxy-PAP] |  | 12.7 | no activity
4 | Nc1ncnc2c1ncn2[C@H]1C[C@H](OP(=O)(O)O)[C@@H](Cn2cc(P(=O)(O)O)nn2)O1 [Compound 12] |  | 100 to 300 | 
